Laboratory results as given in paper PMC8837603, “Lapcin, a potent dual topoisomerase I/II inhibitor discovered by soil metagenome guided total chemical synthesis” (Nature Communications, 2022).

Columns and labels:
[1] = tested on: Colo205 cells; experiment: cells; assay type: cell-based, human; conditions: colon cancer; MTT, 48 h, 37 °C; RPMI-1640 + 10% FBS; 2,500 cells/well; absorbance 570 nm; n = 3 biologically independent
Description: (§1) An MTT (2-(4,5-dimethylthiazol-2-yl)−2,5-diphenyltetrazolium bromide) assay was used to determine the cytotoxicity of lapcin towards diverse cancer cell lines. Lapcin was dissolved in DMSO to make a 3.2 mg/mL working solution. For each cancer line detailed in Supplementary Table 5, cells at 80-90% confluency were counted and seeded in 96-well, flat bottom microplates and incubated at 37 °C with a 5% CO2 atmosphere. Outer wells were unused to avoid edge effects. After adhering for 24 h, the medium was sterilely aspirated and replaced with 100 µL of fresh medium containing lapcin or a control compound serially diluted at concentrations ranging from 8,000 to 0.00382 ng/mL. After 48 h (37 °C, 5% CO2), the medium was carefully removed and 110 µL of freshly prepared MTT solution (10 µL of 5 mg/mL MTT in PBS (pH 7.4) premixed with 100 µL of complete medium) was added to each well. After 3 h at 37 °C with 5% CO2, 100 µL of solubilization solution (40% DMF, 16% SDS and 2% acetic acid in H2O) was added to each well and precipitated formazan crystals were allowed to dissolve for 4 h. The absorbance of each well was then measured at 570 nm using a Tecan microplate reader.

[2] = tested on: SW480 cells; experiment: cells; assay type: cell-based, human; conditions: colon cancer; MTT, 48 h, 37 °C; DMEM + 10% FBS; 10,000 cells/well; absorbance 570 nm; n = 3 biologically independent
Description: as §1

[3] = tested on: HCC1806 cells; experiment: cells; assay type: cell-based, human; conditions: breast cancer; MTT, 48 h, 37 °C; RPMI-1640 + 10% FBS; 2,500 cells/well; absorbance 570 nm; n = 3 biologically independent
Description: as §1

[4] = tested on: MCF 7 cells; experiment: cells; assay type: cell-based, human; conditions: breast cancer; MTT, 48 h, 37 °C; DMEM + 10% FBS; 8,000 cells/well; absorbance 570 nm; n = 3 biologically independent
Description: as §1

[5] = tested on: HEK293 cells; experiment: cells; assay type: cell-based, human; conditions: normal cell; MTT, 48 h, 37 °C; DMEM + 10% FBS; 5, 000 cells/well; absorbance 570 nm; n = 3 biologically independent
Description: as §1

[6] = tested on: HT29 cells; experiment: cells; assay type: cell-based, human; conditions: colon cancer; MTT, 48 h, 37 °C; DMEM + 10% FBS; 2,500 cells/well; absorbance 570 nm; n = 3 biologically independent
Description: as §1

[7] = tested on: A549 cells; experiment: cells; assay type: cell-based, human; conditions: lung cancer; MTT, 48 h, 37 °C; DMEM + 10% FBS + NEAA; 2,500 cells/well; absorbance 570 nm; n = 3 biologically independent
Description: as §1

[8] = tested on: NCI-H1299 cells; experiment: cells; assay type: cell-based, human; conditions: lung cancer; MTT, 48 h, 37 °C; RPMI-1640 + 10% FBS; 2,500 cells/well; absorbance 570 nm; n = 3 biologically independent
Description: as §1

[9] = tested on: NCI-H226 cells; experiment: cells; assay type: cell-based, human
Description: as §1

[10] = tested on: Hela (Cervical) cells; experiment: cells; assay type: cell-based, human; conditions: cervical cancer; MTT, 48 h, 37 °C; DMEM + 10% FBS; 2,500 cells/well; absorbance 570 nm; n = 3 biologically independent
Description: as §1

[11] = tested on: HCT116 cells; experiment: cells; assay type: cell-based, human; conditions: colon cancer; MTT, 48 h, 37 °C; DMEM + 10% FBS; 10,000 cells/well; absorbance 570 nm; n = 3 biologically independent
Description: as §1

[12] = target: T1, E. coli gyrase (Escherichia coli, UniProt P0AES4+P0AES6); experiment: DNA gyrase supercoiling assay; assay type: biochemical
T1 construct: purchased TopoGen, USA
T1 sequence (P0AES4 whole entry, one chain of several): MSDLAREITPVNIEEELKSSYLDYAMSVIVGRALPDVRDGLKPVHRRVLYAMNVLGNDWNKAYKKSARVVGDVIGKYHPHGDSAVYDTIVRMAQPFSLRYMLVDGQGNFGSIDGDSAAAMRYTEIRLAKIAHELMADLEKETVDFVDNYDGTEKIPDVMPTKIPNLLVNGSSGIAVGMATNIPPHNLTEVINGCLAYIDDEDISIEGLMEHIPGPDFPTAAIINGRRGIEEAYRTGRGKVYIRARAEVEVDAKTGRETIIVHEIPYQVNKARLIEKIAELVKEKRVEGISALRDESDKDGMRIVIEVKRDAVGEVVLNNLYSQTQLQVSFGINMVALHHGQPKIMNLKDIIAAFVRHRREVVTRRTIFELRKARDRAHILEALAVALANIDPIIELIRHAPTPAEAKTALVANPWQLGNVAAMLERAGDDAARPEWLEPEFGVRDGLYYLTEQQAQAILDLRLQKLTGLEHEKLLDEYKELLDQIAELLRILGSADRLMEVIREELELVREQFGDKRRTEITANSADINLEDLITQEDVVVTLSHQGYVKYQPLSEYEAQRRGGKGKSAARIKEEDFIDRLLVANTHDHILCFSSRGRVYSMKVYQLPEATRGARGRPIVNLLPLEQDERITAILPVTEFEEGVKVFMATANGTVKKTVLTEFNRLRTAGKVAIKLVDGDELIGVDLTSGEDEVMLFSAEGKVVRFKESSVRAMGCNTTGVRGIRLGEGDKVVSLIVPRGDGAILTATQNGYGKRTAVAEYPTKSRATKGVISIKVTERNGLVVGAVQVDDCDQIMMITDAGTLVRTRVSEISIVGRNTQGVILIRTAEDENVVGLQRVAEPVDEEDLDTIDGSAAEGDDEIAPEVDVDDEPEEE
Description: The DNA gyrase supercoiling assay was conducted with an E. coli gyrase supercoiling kit (TopoGen, USA) in this assay. Ciprofloxacin (Sigma, USA) was used as the positive control. Assay was performed according to the manufacture’s protocol. […] The final volume of the reaction was adjusted to 19 µL with H2O. Finally, 1 µL of fresh diluted E. coli gyrase (1U) was added into the reaction mixture and incubated at 37 °C for 60 min. The reaction was terminated by addition of 2 µL of 10% SDS and 2 µL of 50 µg/mL proteinase K followed by a 30 min at 37 °C. The reaction was then extracted with 20 µL of chloroform/isoamyl alcohol (v:v, 24:1). The aqueous material loaded a on 1% (w/v) agarose gel and separated at 140 v for 1 hour in 0.5% TBE buffer. The gel was visualized using ethidium bromide staining. The intensity of SC plasmid bands was quantified using Analytik Jena image software. The intensity of SC bands was used in the determination of IC50 of tested compounds and the curve were drawn in Prism 9 (9.0.0). The assay was performed in triplicate (n = 3).

[13] = tested on: Wheat germ Topoisomerase I; experiment: DNA intercalator assay / enzyme concentration dependence, Topo I; assay type: biochemical; conditions: unlike known DNA intercalators; supercoil pBR322, 30 min, 37 °C; two independent times
Description: DNA intercalator assay: A commercial DNA unwinding assay kit (Inspiralis, UK) was used in this study with a slight modification. Ethidium bromide was used as intercalator positive control. The assay contains two steps: the first step is used to determine the minimum concentration of compounds that will inhibit the enzyme activity; the second step is used to determine whether compounds act as intercalator or inhibitor. Ethidium bromide was used as the intercalator positive control and supercoil pBR322 was used as the substrate. The assay mixture was set up on the ice. Briefly, the master mixture was prepared by adding 3 µL of […] wheat germ topoisomerase I assay buffer, 0.5 µL of 1 µg/µL supercoil pBR322, 1.5 uL serial diluted compounds (dissolved in DMSO). H2O was added to a final volume of 29 µL. Finally, 1 µL of 2 U/µL Wheat germ Topoisomerase I was added to the reaction mixture. The reaction was incubated for 30 minutes at 37℃. The reaction was stopped by added 20 µL of H2O, and 50 µL of butanol (water-saturated). The mixture was vortexed vigorously and centrifuged for 1 minute. The lower, aqueous layer was removed and added into a new tubes containing 50 µL STEB buffer and 40 µL of Chloroform/isoamyl alcohol (v:v, 24:1). The mixture was vortexed vigorously for 10 secs and centrifuge for 2 minutes. […]

Molecule `CCCCCCCCCCCC(O)CC(=O)N[C@@H](C)C(=O)N[C@@H](CO)C(=O)N[C@@H](C)C(=O)Nc1ccc(-c2nc(-c3nc(C(=O)N[C@@H](CC(N)=O)C(=O)Nc4ccc(C(=O)Nc5ccc(C(=O)Nc6ccc(C(=O)O)cc6)c(O)c5OC(C)C)cc4)cs3)cs2)cc1` (stereo partly drawn) [Lapcin, 4-(4-(4-((2S)-4-amino-2-(2'-(4-((2S)-2-((2S)-3-hydroxy-2-((2S)-2-(3-hydroxytetradecanamido)propanamido)propanamido)propanamido)phenyl)-[2,4'-bithiazole]-4-carboxamido)-4-oxobutanamido)benzamido)-2-hydroxy-3-isopropoxybenzamido)benzoic acid] has an IC50 [1] of 0.504 nM, an IC50 [2] of 37.2 nM and an IC50 [3] of 212 nM. It also gave an IC50 [4] of 35.1 nM, an IC50 [5] of 48.4 nM and an IC50 [6] of 0.516 nM. The IC50 [7] was 2.66 nM, the IC50 [8] was 0.0168 nM and the “potency vs etoposide, NCI-H226” value ([9]; compared with etoposide) was “essentially equipotent”. The IC50 ([9]; lung cancer, MTT, 48 h, 37 °C, RPMI-1640 + 10% FBS, 10,000 cells/well, absorbance 570 nm, n = 3 biologically independent) was 241 nM, the IC50 [10] was 0.986 nM and the IC50 [11] was 923 nM. The IC50 [12] was > 20500 nM and the “dependence of activity on enzyme concentration, Topo I” value [13] was “strong dependence on enzyme concentration”.
